# Reference: patent publication US20210047380A1, “A NEUROTROPHIC PEPTIDE FOR THE THERAPEUTIC TREATMENT OF NEURODEGENERATIVE AND/OR INFLAMMATORY DISEASES” (CONSIGLIO NAZIONALE DELLE RICERCHE, priority 2018, published 2021)
# Key:
# [1] = tested on: hippocampal cells of the dentate gyrus (granule layer and hilus); assay: Hoechst-positive cell count in hippocampal dentate gyrus after intranasal administration; assay type: in vivo, rat; conditions: control (healthy) rats, intranasal once a day for four days
# Protocol: The broken lines show regions of the Dentate Gyrus (DG-H and DG-Granule Layer) where cell counts were performed, shown in the graphs in FIG. 4B.
# To check whether the opposite nature of the two different hproNGF isoforms could affect the number of hippocampal cells and whether the intranasal administration of proNGF could have an effect on diabetes-induced neuronal loss, Hoechst-positive cells were analysed by confocal microscopy in both the cell layers of the hippocampal dentate gyrus, the granule layer (GL) and the hilus (HL) (as shown in FIG. 4A). The rats were deeply anesthetized and transcardially perfused with 0.1 M phosphate buffer followed by 4% paraformaldehyde fixative in 0.1 M phosphate buffer. The brains were removed and cryoprotected with 30% sucrose in phosphate buffer. 40 μm-thick coronal sections of both hemispheres. ranging −2.40 /−3.72 mm from the bregma according to the Paxinos Rat Brain Atlas, were cut on a cryostat and then processed. The brain sections were pre-incubated for 2 hours at room temperature (RT) with PBS containing 10% donkey serum (v/v), 1% BSA (w/v) and 0.3% Triton X-100 (v/v). After washing with PBS, the sections were incubated (2 h, RT) with specific secondary antibodies. Subsequently, the sections were rinsed three times in PBS and incubated for 10 minutes with Hoechst dye for specific staining of the nuclei. […]
# [2] = tested on: PC12 cells; assay: Viability test on PC12 cells in suspension after serum deprivation; assay type: cell-based, rat; conditions: 48 hours of culture, 50 ng/ml mNGF or 100 ng/ml hproNGF-A or hproNGF-B
# Protocol: FIG. 3B is a histogram showing the results from the viability test performed on PC12 cells in suspension after addition of the factors listed under A above.
# PC12 cells were cultured in RPMI 1640 culture medium supplemented with 10% horse serum and 5% calf serum in a humidified atmosphere with 5% CO2 at 37° C. The exponentially growing cells were then seeded on 6-well plates containing poly-L-Lysine, to allow adherence of the cells to the bottom of the well.
# [3] = tested on: hippocampal synaptic plasticity (DG-LTP); assay: Long-term potentiation (LTP) in dentate gyrus of hippocampal slices after intranasal administration; conditions: intranasal once a day for four days, 60 minutes after HFS
# [4] = tested on: hippocampal dentate gyrus neurogenesis; assay: Hippocampal neurogenesis (BrdU, DCX, NeuN confocal microscopy) after intranasal administration; assay type: in vivo, rat
# From the text: The box-plot graphs enclosed by a broken line show the results from the quantitative analyses in healthy rats (A) and diabetic rats (B) of cells that have incorporated BrdU and are at the same time positive for Doublecortin (DCX) (graphs enclosed by a dashed line box) or NeuN (graphs enclosed by a dotted line box). Median±interquartile, n=4 animals per experimental group.
# It is also known that diabetic encephalopathy impairs the hippocampal neurogenesis process. In order to assess the effects induced by exogenous administration of the two hproNGF peptide isoforms on hippocampal neurogenesis, the hproNGF-A peptide for use according to the invention and the known hproNGF-B peptide were administered to healthy and diabetic rats.
# In order to assess the effects of the treatments on dentate gyrus neurogenesis, at the time of diabetes induction, rats were inoculated with bromodeoxyuridine (BrdU), which intercalates into newly formed DNA, specifically labelling cells proliferating at the time of inoculation. Subsequently, a confocal microscopy analysis was performed by labelling with anti-BrdU antibodies and specific antibodies to detect the presence of immature neurons (antibodies to doublecortin, DCX) or mature neurons (antibodies to NeuN).
# [5] = tested on: PC12 cells; assay: PC12 cell neuronal differentiation test; assay type: cell-based, rat; conditions: serum-free medium, 50 ng/ml mNGF or 100 ng/ml hproNGF-A or hproNGF-B, five-day incubation
# [6] = tested on: noradrenergic fibres in the locus coeruleus; assay: Tyrosine hydroxylase immunolocalization in locus coeruleus after intranasal administration (central regulation of sympathetic activity); assay type: in vivo, rat; conditions: adult rats
# Protocol: (§1) (A) Representative photomicrograph of the results from the Western blot analysis performed on conditioned culture media of rat PC12 cells stimulated with hproNGF-A (upper panel) or mNGF (lower panel) for 24 hours. The samples examined were collected at time 0 and 4, 8 and 24 hours post-stimulation. (B) Representative photomicrographs of the immunolocalization of the tyrosine hydroxylase enzyme on brain tissue (locus coeruleus) sections taken from rats after intranasal administration of proNGFA or mNGF.
# The present inventors also carried out experiments aimed at testing the effects of the action of NGF and the proNGF-A peptide on the central regulation of the neuronal sympathetic activity. In short, the NGF or proNGF-A peptides were administered intranasally to the brain parenchyma of adult rats. Subsequently, the noradrenergic neurons located in the locus coeruleus, a brain region responsible for the central control of the functionality of the sympathetic nervous system, were analysed by immunolabelling on thin slices for tyrosine hydroxylase enzyme. Tyrosine hydroxylase enzyme represents an indirect measurement of the production of the noradrenaline neurotransmitter in neurons of certain brain areas. […]
# [7] = tested on: extracellular proteases; assay: Permanence in conditioned culture medium of stimulated PC12 cells (Western blot), resistance to extracellular proteases; assay type: in vitro ADME; conditions: conditioned medium of rat PC12 cells, sampled at 0, 4, 8 and 24 hours post-stimulation
# Protocol: as §1
# In order to assess the resistance of hproNGF-A and mature NGF to the action of extracellular proteases, rat pheochromocytoma cells (PC12) were stimulated with either of the two peptides. Samples collected from conditioned cell culture media at successive times (time zero; 4, 8 and 24 hours post-stimulation) were subjected to Western blot assay in order to verify the permanence of hproNGF-A and mNGF in the culture medium.
Substance,number of cells in hilus and granule layer of dentate gyrus compared to saline-treated rats [1],percentage of living cells [2],extent of DG-LTP compared to saline-treated group ([3]; control groups (healthy animals)),DG-LTP compared to saline-treated diabetic rats (improvement of streptozotocin-induced decrease) ([3]; diabetic rats (streptozotocin)),diabetes-induced alteration in the number of BrdU+-cells ([4]; diabetic rats),percentage of BrdU+-cells expressing DCX ([4]; diabetic rats),number of BrdU-immunopositive cells ([4]; healthy rats),percentage of cells simultaneously immunopositive for BrdU and DCX ([4]; healthy rats),neuronal differentiation of PC12 cells (neurites) [5],arborization (sprouting) of noradrenergic fibres containing tyrosine hydroxylase in the locus coeruleus [6],time the peptide remains in the culture medium after the stimulus [7]
"hproNGF-B: already known human proNGF variant (accession number NM_002506.2), precursor of mature NGF, 221 amino acids long",decreased significantly,induces a decrease in the percentage of living cells,28%,not different from that measured in saline-treated diabetic rats,no influence,no influence,significant reduction,significant reduction,showed evident signs of suffering,,
"mNGF: mature Nerve Growth Factor (NGF) peptide, neurotrophin used as comparator",,maintain a significant proportion of living cells,,,,,,,exhibited the characteristic extensions (neurites),causes arborization (sprouting) of the noradrenergic fibres,not more than 8 hours
